This note sets out measurements from ChEMBL document CHEMBL1201862, “PubChem BioAssay data set” (2004).

Assay in all cases: growth of human tumour cells (NCI), 48 h
Assay [1] has as its system A498.
Assay [2] has as its system A549.
Assay [3] concerns ACHN.
The subject of assay [4] is CCRF-CEM.
The subject of assay [5] is EKVX.
The subject of assay [6] is HCC 2998.
Assay [7] has as its system HL-60.
In assay [8] the test system is M14.
Assay [9] has as its system MDA-MB-231.
The test system of assay [10] is MDA-MB-435.
The test system of assay [11] is MOLT-4.
The test system of assay [12] is NCI-H23.
Assay [13] deals with NCI-H522.
Assay [14] deals with RPMI-8226.
Assay [15] relates to RXF 393.
In assay [16] the test system is SF-539.
For assay [17], the system named is SNB-19.
In assay [18] the test system is SNB-75.
Assay [19] concerns SW-620.
Assay [20] deals with TK-10.

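Method: 48-hour compound exposure of cells in 96-well plates, five concentrations, linear interpolation of endpoints. At the GI50, growth is halved.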 Active and inactive are the calls of the source. No stated cut-off is given here; in the data, active = GI50 up to about 1.1 µM and inactive = higher.

Turning to `COc1cccc(N(CN2CC=CC2=O)C(C)=O)c1`, the GI50 in assay [1], in assay [2], in [3], in [4], in assay [5] and in assay [6] was > 100 µM (inactive) throughout. Further, the GI50 in assay [7], in assay [8], in assay [9], in [10], in assay [11] and in assay [12] was > 100 µM (inactive) in each case. The GI50 in [13], in assay [14], in assay [15], in assay [16], in [17] and in assay [18] was > 100 µM (inactive) each time. The GI50 in assay [19] and in assay [20] was > 100 µM (inactive) throughout.
On to `CCOC(=O)c1nnc2c(C(=O)OCC)c3ccccc3n2c1N`, for which the GI50 is 4.85 µM (inactive) in assay [1]; 10.5 µM (inactive) in assay [2]; 7.19 µM (inactive) in assay [3]; 2.22 µM (inactive) in [4]; 25.8 µM (inactive) in [5]; 34 µM (inactive) in assay [6]. Also, the GI50 is 2.15 µM (inactive) in [7]; 5.97 µM (inactive) in assay [8]; 19.8 µM (inactive) in [9]; 5.05 µM (inactive) in assay [10]; 4.41 µM (inactive) in assay [11]; 5.94 µM (inactive) in [12]. The GI50 in assay [13] was 6.21 µM (inactive); in [14], 1.54 µM (inactive); in assay [15], > 100 µM (inactive); in assay [16] it was 5.66 µM (inactive); in assay [17] it was 4.93 µM (inactive); in assay [18], 11 µM (inactive). Moreover, the values for the GI50 in assay [19] and in [20] were 8.26 µM (inactive) and 7.91 µM (inactive), respectively.
Regarding `CC(=NNC(=S)Nc1cccc(C)c1)c1cccc(C(C)=NNC(=S)Nc2cccc(C)c2)n1`, the GI50 in assay [1] was 21.9 µM (inactive); in assay [2], 18.7 µM (inactive); in [3], 7.24 µM (inactive); in [4], 4.22 µM (inactive); in assay [5] it was 26.1 µM (inactive); in [6] it was 43.3 µM (inactive). For the same molecule, the GI50 was 17.3 µM (inactive) in assay [7]; 11.8 µM (inactive) in assay [8]; 19 µM (inactive) in assay [9]; 22.4 µM (inactive) in assay [10]; 15 µM (inactive) in assay [11]; 27.4 µM (inactive) in assay [12]. Further, the GI50 in assay [13] was 21.2 µM (inactive); in assay [14] it was > 100 µM (inactive); in assay [15], 16.2 µM (inactive); in assay [16], 14.6 µM (inactive); in [17], 30.5 µM (inactive); in [18] it was 17.5 µM (inactive). Also, the GI50 in assay [19] is 19 µM (inactive); in assay [20], 20.3 µM (inactive).
For the molecule `CS(=O)(=O)OCCN(CCOS(C)(=O)=O)c1ccc(C=O)cc1`, the GI50 in assay [1] was 1.74 µM (inactive); in assay [2], 2.89 µM (inactive); in assay [3], 0.346 µM (active); in assay [4], 0.897 µM (active); in [5] it was 7.05 µM (inactive); in assay [6] it was 2.17 µM (inactive). For the same molecule, the GI50 was 2.07 µM (inactive) in assay [7]; 4.55 µM (inactive) in [8]; 21.4 µM (inactive) in [9]; 10.3 µM (inactive) in assay [10]; 0.233 µM (active) in assay [11]; 1.63 µM (inactive) in [12]. In addition, the GI50 in assay [13] is 0.195 µM (active); in assay [14], 8.63 µM (inactive); in [15], 0.432 µM (active); in assay [16] it was 2.18 µM (inactive); in assay [17], 4.22 µM (inactive); in [18], 1.87 µM (inactive). In addition, the GI50 in assay [19] is 14.9 µM (inactive); in assay [20], 2.94 µM (inactive).
As to `CCOC(=O)Cn1c(=O)c2cc(-c3ccccc3)cc3c(Cl)nc4c(OC)c(OC)cc1c4c32`, the GI50 in [1] was 17 µM (inactive); in assay [2] it was 28 µM (inactive); in assay [3] it was 19.9 µM (inactive); in assay [4], 5.16 µM (inactive); in assay [5] it was 12.4 µM (inactive); in assay [6], 16.7 µM (inactive). Besides, the GI50 in assay [7] is 4.89 µM (inactive); in assay [8] it was 15.6 µM (inactive); in [9], 17.6 µM (inactive); in assay [10] it was 17.4 µM (inactive); in [11], 3.1 µM (inactive); in assay [12], 15.3 µM (inactive). Moreover, the GI50 was 14.8 µM (inactive) in assay [13]; 4.91 µM (inactive) in assay [14]; 14.8 µM (inactive) in [15]; 87.5 µM (inactive) in assay [16]; 19 µM (inactive) in assay [17]; 15.3 µM (inactive) in assay [18]. Besides, the values for the GI50 in assay [19] and in assay [20] were 17.7 µM (inactive) and 31.7 µM (inactive), respectively.
On to `COc1ccccc1/C=C\c1cnnc2ccccc12`, for which the GI50 in assay [1] is > 10 µM (inactive); in assay [2] it was > 10 µM (inactive); in [3], > 10 µM (inactive); in assay [4] it was 6.59 µM (inactive); in assay [5] it was 8.79 µM (inactive); in assay [6], > 10 µM (inactive). The GI50 in assay [7] was > 10 µM (inactive); in assay [8] it was > 10 µM (inactive); in [9], > 10 µM (inactive); in assay [10] it was 3.49 µM (inactive); in assay [11], 6.24 µM (inactive); in [12], > 10 µM (inactive). The GI50 in assay [13] is > 10 µM (inactive); in assay [14], > 10 µM (inactive); in assay [15], > 10 µM (inactive); in [16], > 10 µM (inactive); in assay [17], > 10 µM (inactive); in assay [18] it was 9.02 µM (inactive). Further, the GI50 in assay [19] and in [20] was > 10 µM (inactive) in each case.
